In article PMC9293649 (The Journal of Biological Chemistry, 2022):

T1: DarB (Bacillus subtilis, UniProt O31698)
T1 sequence (O31698 1-147): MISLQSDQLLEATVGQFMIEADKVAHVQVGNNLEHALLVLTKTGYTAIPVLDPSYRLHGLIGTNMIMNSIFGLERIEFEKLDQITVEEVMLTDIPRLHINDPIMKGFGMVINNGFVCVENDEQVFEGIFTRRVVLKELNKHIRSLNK


Legend:
DarB = target: T1, DarB; assay: ITC and crystal structure; type: binding
crystal structure = target: the molecule itself; assay: crystal structure

Kd (DarB) [µM]	Molecule	stoichiometry N (crystal structure)
91.1	Nc1ncnc2c1ncn2[C@@H]1O[C@H](COP(=O)(O)O)[C@@H](O)[C@H]1O [AMP]	–
–	DarB (c-di-AMP receptor protein, CBS domain protein) of Bacillus subtilis, wild type (natural protein) MISLQSDQLLEATVGQFMIEADKVAHVQVGNNLEHALLVLTKTGYTAIPVLDPSYRLHGLIGTNMIMNSIFGLERIEFEKLDQITVEEVMLTDIPRLHINDPIMKGFGMVINNGFVCVENDEQVFEGIFTRRVVLKELNKHIRSLNK	2
